Assay results: US6265423A, “Aromatic polycyclic retinoid-type derivatives, method for preparing same, and use thereof for making pharmaceutical and cosmetic compositions” (priority 1996, dated 2001)
One block for each compound: values may come before it.

Assays:
[1] = tested on: ZR-75-1 human mammary cancer cells; experiment: MTT test, proliferation of ZR-75-1; format: cell-based
Method: (§1) The cells that were cultured came from the ATCC (American Type Culture Collection).
(§2) The cellular lines are kept in culture in a monolayer at 37° C. in closed culture dishes (Nunc. Gibco BRL, Life Technologies, Belgium) containing the minimum essential medium (MEM, Gibco) supplemented with 5% of Foetal Calf Serum, (FCS, Gibco), 0.6 mg/ml of glutamine (Gibco) and a mixture of 200 IU/mi of penicillin (Gibco), 200 μg/ml of streptomycin (Gibco) and 0.1 mg/ml of gentamycin (Gibco). The foetal calf serum is decomplemented for 1 hour at 56° C.
(§3) This test is based on the mitochondrial reduction by living metabolically active cells of the MTT (3-(4,5-dimethylthiazol-2-yl)-2,5-diphenyltetrazolium bromide) of yellowish colour into a blue coloured product, formazan. The quantity of formazan obtained is directly proportional to the number of living cells. After incubation of the cells for 24 hours in microplates with 96 flat bottomed wells, the culture medium is replaced by 100 μl of fresh culture medium containing the drug to be tested.
(§4) The microplates are then incubated for 3 hours at 37° C. and centrifuged for 10 minutes at 400 g (GPR centrifuge, Beckman). The MTT solution is replaced by 100 μl of dimethylsulphoxide (Merck). The microplates are agitated (Vari-Shaker, Dynatech) for 10 minutes.
(§5) In the microplates, the control cells like the treated cells were incubated in a medium without the compounds to be tested for 24 hours. The control cells are incubated in a medium without a drug throughout the whole experiment, while the treated cells are incubated in different media. These media contain the molecule to be tested at various concentrations: 10^-8 M, 10^-6 M and 10^-4 M. All the tests are carried out in 6 duplicates.
(§6) The statistical comparisons are carried out according to the Fisher Test:
(§7) The mean optical density measured for each experimental condition is expressed as a percentage in relation to the laid down control condition being equal to 100%.

[2] = tested on: T-47D human mammary cancer cells; experiment: MTT test, proliferation of T-47D; format: cell-based
Method: as §1, §2, §3, §4, §5, §6, §7

[3] = tested on: A549 human pulmonary cancer cells; experiment: MTT test, proliferation of A549; format: cell-based
[4] = cited from earlier work
[5] = tested on: A-427 human pulmonary cancer cells; experiment: MTT test, proliferation of A-427; settings: Homo sapiens, A-427, 72 h, read-out: level of proliferation
RARα-ERcassette = experiment: Transactivation, chimerical receptor RARα-ERcassette (HeLa); format: cell-based; settings: TTNPB 10^-8 M = 100
Source text: (§8) The HeLa cells are co-transfected by a plasmid which codes for a retinoic receptor in which the C domain of bonding to the DNA is substituted by that of the receptor to RE oestrogens, and a plasmid which places the expression of the luciferase under the control of an ERE (Element of Response to Oestrogens). The expressed chimerical receptors are designated as RARα-ERcassette, RARβ-ERcassette, RARγ-ERcassette and RXRα-ERcassette. The A, B, D, E and F regions of the natural receptor are preserved as well as the transcriptional co-operation between the activation domains AF-1 and AF-2. These transitory transfection experiments follow the method of co-precipitation to calcium phosphate. The HeLa cells are co-transfected by […] of plasmid coding for the chimerical receptor, […] of reporter plasmid and […] of expression vector CMV-β-galactosidase used as an internal control of transfection. 24 hours after the transfection, the cells are incubated for 16 hours with the different effectors.
(§9) In this type of chimerical receptor, the C domain of bonding to the DNA of RAR is substituted by that of the receptor to the RE oestrogens. The protein obtained is close to the natural RAR receptor and preserves the transcriptional properties of the AF-1 and AF-2 domains. It modulates the transcription by means of an ERE. This RAR-ERcassette model allows one to observe a transcriptional response to a more physiological ligand.

RARβ-ERcassette = experiment: Transactivation, chimerical receptor RARβ-ERcassette (HeLa); format: cell-based; settings: TTNPB 10^-8 M = 100
Source text: as §8, §9

RARγ-ERcassette = experiment: Transactivation, chimerical receptor RARγ-ERcassette (HeLa); format: cell-based; settings: TTNPB 10^-8 M = 100
Source text: as §8, §9

T-47D cells = experiment: Effect on oestrogen-induced proliferation of T-47D cells; format: cell-based, human; settings: Homo sapiens, T47D, 168 h; 10^-6 M; 100% = E2 10^-9 M, 7 days; read-out: growth of T-47D cells
Method: (§10) MCF-7 cells and HeLa are cultivated in DMFM with phenol red to which 5% foetal calf serum is added. The T47-D cells are cultivated in RPMI to which 10% foetal calf serum is added. The experimental tests are carried out in DMEM without phenol red to which foetal calf serum treated with dextran carbon is added at 3%. […] The experiments using the different retinoids are carried out sheltered from the light so as to avoid any isomerisation.
So as to test the anti-proliferation effect of the retinoids, growth experiments under oestrogenic conditions were carried out on cells MCF-7 and T-47D. These are the human oestrogen-dependent mammary cancer cells which express the receptor to RE oestrogens. The effect of the molecules is evaluated after 7 days of culture in oestrogenic conditions (estradiol 10^-9 M) by dosing the cellular DNA. The cells are distributed in 24 well plates at a density of 2×10^4 cells per well. The tests with the different retinoids are carried out in triplicate and the culture medium is changed after 4 days of growth.

[6] = tested on: response element RARE of RARβ gene, endogenic retinoic receptors, HRLN lineage; experiment: HRLN transactivation (RARE-luciferase, stably transfected HeLa); format: cell-based
Method: as §10
(§11) Certain properties of the retinoids have been determined using more developed cellular models. These models consist of cellular lineages transfected in a stable fashion by recombinant plasmids which place the expression of the gene of the luciferase under the control of different nuclear response elements. […] The tests carried out in duplicate are described below for each of these models.
The cellular lineages HRLN and HRL+N allow one to study the activation of an RARE by endogenic receptors using ligands at physiological concentrations. These lineages derive from HeLa cells transfected in a stable fashion by a reporter gene which places the expression of the gene of the luciferase under the control of a nuclear response element RARE (RARE3 -tk-Luc). The HeLa cells express all the known receptors of the retinoic acid (RARα,β,γ and RXRα,β,γ) with a predominance of RARα and RXRα. The response element RARE used for the HRLN cells corresponds to the sequence of the natural gene of the RARβ receptor (GGTTCAnnnnnAGTTCA). The HRL+N cells comprise the sequence GAGTGAnnnnnCGGTGA.
This lineage comprises the response element RARE of the natural gene of the RARβ receptor which controls the expression of the gene of the luciferase.

[7] = tested on: AP-1, MTLN lineage (MCF-7); experiment: Anti-AP-1 effect, MTLN lineage activated by TPA; format: cell-based, human
Method: as §11
The anti-factor AP-1 transrepressor effect of retinoids is determined using the MTLN lineage, coming from MCF-7 cells transfected in a stable fashion by a vector p(TRE)3 -tk-Luc which places the expression of the gene of luciferase under the control of […]. TPA activates the AP-1 complex formed from proteins of the family of nuclear proto-oncogenes (c-Jun and c-Fos). […] The experiments are made with the MTLN cells activated by 10^-7 M TPA.
The effect of the compounds on the MTLN cells activated by 10^-7 M TPA is expressed as a percentage. […] The inhibitive properties of the products are calculated after deduction of the base activity of the cells. The percentages reported correspond to a range of inhibitions determined from several experiments.

[8] = tested on: ERE-βGlob-Luc, MELN lineage (MCF-7); experiment: Anti-oestrogenic effect, MELN lineage activated by estradiol; format: cell-based, human
Source text: as §11
MCF-7 cells express RARα,γ and RXRα. The transfection of MCF-7 cells by an oestrogen-dependent gene (ERE-βGlob-Luc) has permitted the establishment of the MELN cellular lineage, used to determine the anti-oestrogenic activity of the retinoids. These cells contain the gene of the luciferase under the transcriptional control of the promoter of the βGlobine and of the response element ERE isolated from the gene of chicken vitelogenine A2. The experiments are carried out with MELN cells activated by 10^-9 M estradiol. The level of base activity of the MELN cells is obtained with the anti-oestrogen 1 μM 4-OH-tamoxifen (hydroxytamoxifen).
The effect of the products tested on the cells activated by 10^-9 M estradiol is expressed as a percentage, the level of base activity being deducted.

[9] = tested on: RAR-ERcassettes (RARα, RARβ, RARγ); experiment: Chimerical receptors RAR-ERcassettes, overall profile; format: cell-based
Source text: as §8, §9

RAR and RXR receptors = experiment: RAR/RXR activity profile drawn from the models; format: cell-based
Source text: The reference molecules have allowed one to show the effectiveness and the complementary nature of the different models used and lead to the following conclusions: chimerical constructions GAL-RAR and RAR-ERcassette allow the determination of the RAR agonist profile of molecules, but also an RXR agonist activity with RAR-ERcassette, the HRLN lineage mainly conveys the activity of a compound mediated by endogenic RARα, the HRL+N lineage also provides evidence of an RXR agonist activity of the retinoids, the anti-oestrogenic effect of the retinoids (oestrogen-induced cellular proliferation and MELN lineage) is mediated by RARα, the anti-AP-1 effect is mediated in the MCF-7 cells (MTLN lineage) by RARα, RARγ and RXRα, and an additive effect exists between the RAR and RXR routes.

[10] = Homo sapiens, A549, 72 h, read-out: level of proliferation

SMILES: CC1=C(/C=C/C(C)=C/C=C/C(C)=C\C(=O)O)C(C)(C)CCC1 [CB81808, 13-cis retinoic acid, reference compound]
activity at 100 µM ([1]; Homo sapiens, ZR-75-1, 10^-4 M, 72 h, control = 100%, read-out: level of proliferation): 2.3%
activity at 1 µM ([1]; Homo sapiens, ZR-75-1, 10^-6 M, 72 h, control = 100%, read-out: level of proliferation): 55%
activity at 0.01 µM ([1]; Homo sapiens, ZR-75-1, 10^-8 M, 72 h, control = 100%, read-out: level of proliferation): 41.6%
effect on cellular increase, ZR-75-1 (in words) ([1]; MTT test): inhibit the cellular increase of the two mammary lineages at the concentrations tested
activity at 100 µM ([2]; Homo sapiens, T47D, T-47D, 10^-4 M, 72 h, control = 100%, read-out: level of proliferation): 9.94%
activity at 1 µM ([2]; Homo sapiens, T47D, T-47D, 10^-6 M, 72 h, control = 100%, read-out: level of proliferation): 51.8%
activity at 0.01 µM ([2]; Homo sapiens, T47D, T-47D, 10^-8 M, 72 h, control = 100%, read-out: level of proliferation): 70.3%
effect on cellular increase, T-47D (in words) ([2]; MTT test): inhibit the cellular increase of the two mammary lineages at the concentrations tested
activity at 0.01 µM [3, 10]: 77.6%
activity at 1 µM [3, 10]: 85.9%
activity at 100 µM [3, 10]: 23.6%
effect on cellular increase, A549 (in words) ([3]; MTT test): inhibit the proliferation of the A549 lineage at 10^-6 M and 10^-8 M
adverse effects in chronic treatment (in words) [4]: powerful effect of hypervitaminose, of mucocutaneous toxicity and of teratogenecity
activity at 0.01 µM [5]: 100%
activity at 1 µM [5]: 99.6%
activity at 100 µM [5]: 6.5%

RAR/RXR activity profile (in words) (RAR and RXR receptors): panagonistic
SMILES: C/C(=C/c1ccc2c(c1)C(C)(C)CCC2(C)C)c1ccc(C(=O)O)s1 [CB30382, (Z) 2-[1-(5,6,7,8-tetrahydro-5,5,8,8-tetramethyl-2-naphthalenyl)-2-propenyl]thienyl-5-carboxylic acid]
RAR-ERcassette RARα transactivation (RARα-ERcassette; 10^-6 M): 93%
RAR-ERcassette RARα transactivation (RARα-ERcassette; 10^-7 M): 12%
RAR-ERcassette RARβ transactivation (RARβ-ERcassette; 10^-6 M): 130%
RAR-ERcassette RARβ transactivation (RARβ-ERcassette; 10^-7 M): 39%
RAR-ERcassette RARγ transactivation (RARγ-ERcassette; 10^-6 M): 83%
RAR-ERcassette RARγ transactivation (RARγ-ERcassette; 10^-7 M): 29%
activity at 1 µM (T-47D cells): 73 to 94%
HRLN transactivation (in words) [6]: induce a transactivation close to that of TTNPB
Emax ([6]; Homo sapiens, HeLa, read-out: HRLN transactivation, E max): 102%
inhibition at 1 µM ([7]; Homo sapiens, MCF7, 10^-6 M, cells activated by 10^-7 M TPA, range of several experiments): 42 to 47%
inhibition at 0.1 µM ([7]; Homo sapiens, MCF7, 10^-7 M, cells activated by 10^-7 M TPA, range of several experiments, read-out: anti-AP-1 effect, inhibition): 21%
anti-AP-1 effect (in words) ([7]; TPA-activated MTLN cells): exert an inhibitor effect comparable to that of the effect of CB28628
inhibition ([8]; Homo sapiens, MCF7, 10^-6 M, cells activated by 10^-9 M estradiol): 2 to 20%
inhibition at 0.1 µM ([8]; Homo sapiens, MCF7, 10^-7 M, cells activated by 10^-9 M estradiol, read-out: anti-oestrogenic effect, inhibition): 0%
anti-oestrogenic effect (in words) ([8]; estradiol-activated MELN cells): permit a transrepression of a controlled gene by an ERE
RAR-ERcassette profile (in words) [9]: induce a transactivation mediated by the three receptors
